DBAASP
In brackets after ≈: the same amount, converted by molar mass.

Tests used:
Assay in all cases: ≥ marks a high value that may be exact or a test limit, other limits are often not marked, values filed in µg/mL are converted to µM
Escherichia coli BL21AI = test system: Escherichia coli BL21AI
[1] = test system: Enterobacter cloacae Ha185
[2] = test system: Salmonella enterica subsp. enterica serovar Enteritidis MH91989
[3] = test system: Pseudomonas aeruginosa DSM 3227
[4] = test system: Klebsiella pneumoniae ATCC 12657
[5] = test system: Proteus vulgaris ICB 9095
[6] = test system: Klebsiella pneumoniae DSM 681
[7] = test system: Pseudomonas aeruginosa Pa1409
[8] = test system: Klebsiella pneumoniae ATCC 27799
Escherichia coli J2210 = test system: Escherichia coli J2210
[9] = test system: Shigella flexneri CMCC 51572
[10] = test system: Acinetobacter baumannii Ab1408
[11] = test system: Acinetobacter baumannii M17
[12] = test system: Acinetobacter baumannii ICB 9250
Escherichia coli UB1005 = test system: Escherichia coli UB1005
[13] = test system: Klebsiella pneumoniae 57 USA
[14] = test system: Enterobacter cloacae 34654
[15] = test system: Shigella dysenteriae CMCC 51252
[16] = test system: Stenotrophomonas sp. ICB 308054
[17] = test system: Escherichia coli DSM 1103
[18] = test system: Enterococcus faecalis ATCC 29212
[19] = test system: Acinetobacter baumannii ICB 14072
[20] = test system: Pseudomonas aeruginosa Walter
Escherichia coli Neumann = test system: Escherichia coli Neumann
[21] = test system: Staphylococcus aureus Sa1390
[22] = test system: Salmonella typhimurium CMCC 50115
[23] = test system: Enterobacter cloacae Ha89
[24] = test system: Klebsiella pneumoniae ATCC 10031
Escherichia coli = test system: Escherichia coli
[25] = test system: Proteus vulgaris ICB 9081
[26] = test system: Shigella flexneri ATCC 12022
Escherichia coli MC1061 = test system: Escherichia coli MC1061
[27] = test system: Enterobacter cloacae Ha088
[28] = test system: Micrococcus luteus ATCC 10240
Escherichia coli Ec513 = test system: Escherichia coli Ec513
Escherichia coli O157:H7 = test system: Escherichia coli O157:H7
[29] = test system: Acinetobacter baumannii ICB 14073

Molecule `CC[C@H](C)[C@H](NC(=O)[C@H](CCCN=C(N)N)NC(=O)[C@H](CCCN=C(N)N)NC(=O)[C@@H]1CCCN1C(=O)[C@@H]1CCCN1C(=O)[C@H](CCCN=C(N)N)NC(=O)[C@@H]1CCCN1C(=O)[C@H](CCCN=C(N)N)NC(=O)[C@@H]1CCCN1C(=O)[C@H](CC(C)C)NC(=O)[C@H](Cc1ccc(O)cc1)NC(=O)[C@@H]1CCCN1C(=O)[C@@H]1CCCN1C(=O)[C@H](CCCCN)NC(=O)[C@H](CC(=O)O)NC(=O)[C@@H](N)C(C)C)C(=O)N[C@@H](Cc1ccc(O)cc1)C(=O)N[C@@H](CC(N)=O)C(=O)N[C@@H](CCCN=C(N)N)C(N)=O` [VDKPPYLPRPRPPRRIYNR] has an MIC (Escherichia coli BL21AI) of 1.67 µM (≈ 4 µg/mL), an MIC [1] of 0.209 µM (≈ 0.5 µg/mL) and an MIC [2] of 0.251 µM (≈ 0.6 µg/mL). The MIC [3] was 1.67 µM (≈ 4 µg/mL), the MIC [4] was 0.209 µM (≈ 0.5 µg/mL) and the MIC [5] was 1.67 µM (≈ 4 µg/mL). For the same molecule, the MIC [6] was 1.67 µM (≈ 4 µg/mL), the MIC [7] was ≥ 53.5 µM and the MIC [8] was 0.418 µM (≈ 1 µg/mL). The MIC (Escherichia coli J2210) was 0.33 µM (≈ 0.79 µg/mL), the MIC [9] was 8 µM (≈ 19.1 µg/mL) and the MIC [10] was ≥ 53.5 µM. It also gave an MIC [11] of 0.418 µM (≈ 1 µg/mL), an MIC [12] of 0.209 µM (≈ 0.5 µg/mL) and an MIC (Escherichia coli UB1005) of 0.544 µM (≈ 1.3 µg/mL). It also gave an MIC [13] of 0.105 µM (≈ 0.25 µg/mL), an MIC [14] of 0.105 µM (≈ 0.25 µg/mL) and an MIC [15] of 8 µM (≈ 19.1 µg/mL). For the same molecule, the MIC [16] was 13.4 µM (≈ 32 µg/mL), the MIC [17] was 3.35 µM (≈ 8 µg/mL) and the MIC [18] was > 512 µM. For the same molecule, the MIC [19] was 0.418 µM (≈ 1 µg/mL), the MIC [20] was 3.35 µM (≈ 8 µg/mL) and the MIC (Escherichia coli Neumann) was 0.837 µM (≈ 2 µg/mL). The MIC [21] was ≥ 53.5 µM, the MIC [22] was 8 µM (≈ 19.1 µg/mL) and the MIC [23] was 0.105 µM (≈ 0.25 µg/mL). It also gave an MIC [24] of 4 µM (≈ 9.56 µg/mL), an MIC (Escherichia coli) of 0.296 µM (≈ 0.707 µg/mL) and an MIC [25] of 1.67 µM (≈ 4 µg/mL). It also gave an MIC [26] of 16 µM (≈ 38.2 µg/mL), an MIC (Escherichia coli MC1061) of 0.126 µM (≈ 0.3 µg/mL) and an MIC [27] of 0.0523 µM (≈ 0.125 µg/mL). For the same molecule, the MIC [28] was 3.35 µM (≈ 8 µg/mL), the MIC (Escherichia coli Ec513) was ≥ 53.5 µM and the MIC (Escherichia coli O157:H7) was 1.31 µM (≈ 3.14 µg/mL). It also gave an MIC [29] of 0.837 µM (≈ 2 µg/mL).
